According to patent US6417174B1, “Inhibitors of β-lactamases and uses therefor” (Northwestern University, priority 1997, dated 2002):
Like-named read-outs stand apart in the source and are kept apart here.

What was measured:
[1] = molecular target: AmpC β-lactamase from E. coli (Escherichia coli, UniProt P00811); assay: biochemical; type: biochemical
[2] = molecular target: T1, TEM-1 β-lactamase from E. coli (Escherichia coli, UniProt P62593); assay: Inhibition of TEM-1 β-lactamase, spectrophotometric assay (FAP substrate); type: biochemical
T1 construct: gift: Natalie Strynadka, University of Alberta

[3] = test system: E. coli RYC1000 harboring a plasmid coding for a mutant of AmpC from Enterobacter (ECR-AmpCEnM); assay: microbe, parasite or virus in culture; type: cell-based, Escherichia coli; details: for MIC of amoxicillin plus inhibitor: Table 4A, ECR-AmpCEnM, proportion 4/1; for MIC of inhibitor used alone without amoxicillin: Table 4B, ECRAmpCEnM, not tested above 128 μg/ml, “256” indicates no inhibition of cell growth
Experimental: (§1) After incubation, the growth of the cells was visually inspected. The minimum inhibitory concentration (MIC) is the lowest concentration where there no cell growth was observed.
(§2) The following strains were used: Enterobacter cloacae cell line with derepressed β-lactamase production (Ent-Der), and Escherichia coli RYC1000 (araD139 D lacU169 rpsL D rib7 thiA gyrA recA56) cell lines, harboring the plasmid pBGS19 (with no β-lactamase), or the β-lactamase containing plasmids pBGAmpC (AmpC β-lactamase from E. coli; Eco-AmpC), or pBGAmpC-MHN (AmpC β-lactamase from Enterobacter cloacae; Eco-AmpCEnt). […] TEM-10 and TEM-24 differ from TEM-1 due to the following point substitutions: TEM-10 (R164S, E240K); TEM-24 (L102K, L162S, S235T, A237K). TEM-10 and TEM-24 also differ from TEM-1 in being extended spectrum enzymes (i.e., they react with a greater range of substrates than TEM-1). Also tested were clinical isolates of Pseudomonas aeruginosa. All bacterial strains and plasmids are available from Jesus Blazquez and Fernando Baquero, Servicio de Microbiologia, Hospital Ramon y Cajal, National Institute of Health, Madrid, Spain.
(§3) Several ratios, including 1:1, 2:1, 4:1, and 1:3, of β-lactam antibiotic (amoxicillin (AX) or ceftazidime (CAZ)) to boronic acid compound were used in the assays. Tazobactam (TAZO), a clinically used β-lactamase inibitor, was used as a positive control.

[4] = test system: E. coli RYC1000 harboring pBGAmpC-E. coli producing AmpC (ECR-AmpCEc); assay: microbe, parasite or virus in culture; type: cell-based, Escherichia coli; details: for MIC of amoxicillin plus inhibitor: Table 4A, proportion 4/1; for MIC of amoxicillin plus inhibitor / MIC of inhibitor used alone without amoxicillin: ECR-AmpCEc; for MIC of inhibitor used alone without amoxicillin: Table 4B, not tested above 128 μg/ml, “256” indicates no inhibition of cell growth
Experimental: as §1, §2, §3

[5] = test system: E. coli RYC1000 harboring pBGTEM-1 producing TEM-1 β-lactamase (EC-T1); assay: microbe, parasite or virus in culture; type: cell-based, Escherichia coli; details: for MIC of amoxicillin plus inhibitor: Table 4A, proportion 4/1; for MIC of amoxicillin plus inhibitor / MIC of inhibitor used alone without amoxicillin: EC-T1; for MIC of inhibitor used alone without amoxicillin: Table 4B, not tested above 128 μg/ml, “256” indicates no inhibition of cell growth
Experimental: as §1, §2, §3

[6] = test system: E. coli RYC1000 harboring pBGTEM-10 producing TEM-10 β-lactamase (EC-T10); assay: microbe, parasite or virus in culture; type: cell-based, Escherichia coli; details: for MIC of amoxicillin plus inhibitor: Table 4A, proportion 4/1; for MIC of amoxicillin plus inhibitor / MIC of inhibitor used alone without amoxicillin: EC-T10; for MIC of inhibitor used alone without amoxicillin: Table 4B, not tested above 128 μg/ml, “256” indicates no inhibition of cell growth
Experimental: as §1, §2, §3

[7] = test system: E. coli RYC1000 harboring plasmid pBGAmpC-MHN (AmpC β-lactamase of Enterobacter cloacae); assay: microbe, parasite or virus in culture; type: cell-based, Escherichia coli; details: for MIC of ceftazidime plus inhibitor: Table 3A, proportion 4/1, given as CAZ/inhibitor; for MIC of ceftazidime plus inhibitor / MIC of inhibitor used alone without ceftazidime: AmpC-MHN; for MIC of inhibitor used alone without ceftazidime: Table 3B; for MIC of amoxicillin plus inhibitor: Table 4A, EC-AmpCEn, proportion 4/1; for MIC of inhibitor used alone without amoxicillin: Table 4B, ECAmpCEn, not tested above 128 μg/ml, “256” indicates no inhibition of cell growth; as to MIC of ceftazidime plus inhibitor: values in µg/ml
Experimental: as §1, §2, §3

[8] = test system: β-lactamase derepressed strain of Enterobacter cloacae (Ent-Der); assay: microbe, parasite or virus in culture; type: cell-based; details: for MIC of ceftazidime plus inhibitor: Table 3A, proportion 4/1, given as CAZ/inhibitor; for MIC of ceftazidime plus inhibitor / MIC of inhibitor used alone without ceftazidime: Ent. Der.; for MIC of inhibitor used alone without ceftazidime: Table 3B; for MIC of amoxicillin plus inhibitor: Table 4A, proportion 4/1; for MIC of amoxicillin plus inhibitor / MIC of inhibitor used alone without amoxicillin: Ent-Der.; for MIC of inhibitor used alone without amoxicillin: Table 4B, not tested above 128 μg/ml, “256” indicates no inhibition of cell growth; as to MIC of ceftazidime plus inhibitor: values in µg/ml
Experimental: as §1, §2, §3

[9] = test system: E. coli RYC1000 harboring plasmid pBGS19 (no β-lactamase); assay: microbe, parasite or virus in culture; type: cell-based, Escherichia coli; details: for MIC of ceftazidime plus inhibitor: Table 3A, proportion 4/1; for MIC of ceftazidime plus inhibitor / MIC of inhibitor used alone without ceftazidime: pBGS19; for MIC of inhibitor used alone without ceftazidime: Table 3B; for MIC of inhibitor used alone without amoxicillin: Table 4B, EC, not tested above 128 μg/ml, “256” indicates no inhibition of cell growth
Experimental: as §1, §2, §3

[10] = test system: E. coli RYC1000 harboring plasmid pBGTEM-24 (TEM-24 β-lactamase); assay: microbe, parasite or virus in culture; type: cell-based, Escherichia coli; details: for MIC of ceftazidime plus inhibitor: Table 3A, proportion 4/1, given as CAZ/inhibitor; for MIC of inhibitor used alone without ceftazidime: Table 3B; as to MIC of ceftazidime plus inhibitor: values in µg/ml
Experimental: as §1, §2, §3

[11] = pH 7, read-out: Ki E. coli AmpC
[12] = Tables 2A/2B, pH 7.0, 25° C., 100 μM FAP, N.I. = no inhibition observed at an inhibitor concentration of 100 μM, read-out: Ki E. coli TEM-1
[13] = Escherichia coli, read-out: MIC of amoxicillin (AX)
[14] = Enterobacter cloacae, read-out: MIC of amoxicillin (AX)
[15] = Tables 2A/2B, pH 7.0, 25° C., 100 μM cephalothin, read-out: Ki E. coli AmpC

T1 sequence (P62593 24-286 limits assumed): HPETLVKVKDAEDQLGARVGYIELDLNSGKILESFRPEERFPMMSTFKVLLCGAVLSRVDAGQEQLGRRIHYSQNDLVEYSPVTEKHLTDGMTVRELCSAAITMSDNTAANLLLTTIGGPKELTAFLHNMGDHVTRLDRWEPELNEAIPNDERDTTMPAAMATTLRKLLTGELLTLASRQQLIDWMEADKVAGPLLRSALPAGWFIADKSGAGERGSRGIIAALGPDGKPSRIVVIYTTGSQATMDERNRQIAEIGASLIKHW
Sequence of AmpC β-lactamase from E. coli (P00811 20-377): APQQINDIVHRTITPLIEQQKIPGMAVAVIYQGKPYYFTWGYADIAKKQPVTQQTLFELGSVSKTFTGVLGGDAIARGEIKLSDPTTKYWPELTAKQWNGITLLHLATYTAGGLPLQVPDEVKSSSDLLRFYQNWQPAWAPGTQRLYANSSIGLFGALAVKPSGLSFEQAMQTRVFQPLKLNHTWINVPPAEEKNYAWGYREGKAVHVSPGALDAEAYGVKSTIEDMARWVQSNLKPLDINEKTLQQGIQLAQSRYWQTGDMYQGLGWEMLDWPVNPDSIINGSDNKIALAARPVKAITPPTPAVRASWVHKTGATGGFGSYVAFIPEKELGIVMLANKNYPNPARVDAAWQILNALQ

Q: For `OB(O)c1ccsc1` [TH3B, thiopene-3-boronic acid], which Ki [1, 11] is on record?
A: 17 µM

Q: What about the Ki ([1]; read-out: Ki for AmpC) of the same molecule?
A: 22.1 ± 3.5 µM

Q: And the Ki [2, 12]?
A: 100 µM

Q: Which results are given for `CC1(C)S[C@@H]2[C@H](NC(=O)[C@H](N)c3ccc(O)cc3)C(=O)N2[C@H]1C(=O)O` [AX, amoxicillin, reference compound]?
A: MIC ([3]; Enterobacter, read-out: MIC of amoxicillin (AX)): > 2050 µg/mL; MIC [4, 13]: > 2050 µg/mL; MIC [5, 13]: > 2050 µg/mL; MIC [6, 13]: > 2050 µg/mL; MIC [7, 14]: > 2050 µg/mL; MIC [8, 14]: > 2050 µg/mL

Q: For `OB(O)c1ccc(B(O)O)cc1` [B14DA], which Ki [1, 11] is on record?
A: 6.9 µM

Q: And the Ki [2, 12]?
A: 40 µM

Q: Which Ki [1, 15] does the source give for `OB(O)c1cccc2ccccc12` [NAPB] here?
A: 10.4 µM

Q: And the “dissociation constant relative to MAPB (AmpC)” value ([1]; compared with MAPB)?
A: two to three-fold worse (higher)

Q: What about the Ki [2, 12] of the same molecule?
A: 34 µM

Q: `OB(O)c1cc(N=Nc2cccc(C(F)(F)F)c2)ccc1O` [HFAB, 2-hydroxy-5-(3-(trifluoromethyl)phenylazo) benzeneboronic acid] was tested. Which Ki [1, 15] did it give?
A: 1.3 µM

Q: What does the source list for `OB(O)c1cccs1` [TH2B, thiophene-2-boronic acid]?
A: Ki [2]: 31 µM; MIC of amoxicillin plus inhibitor [3]: 32 µg/mL; MIC of inhibitor used alone without amoxicillin [3]: 64 µg/mL; MIC of amoxicillin plus inhibitor [4]: 64 µg/mL; MIC of inhibitor used alone without amoxicillin [4]: 128 µg/mL; MIC of amoxicillin plus inhibitor [5]: 128 µg/mL; MIC of inhibitor used alone without amoxicillin [5]: 64 µg/mL; MIC of amoxicillin plus inhibitor [6]: 256 µg/mL; MIC of inhibitor used alone without amoxicillin [6]: 128 µg/mL; MIC of ceftazidime plus inhibitor [7]: 8/2; MIC of inhibitor used alone without ceftazidime [7]: 128 µg/mL; MIC of amoxicillin plus inhibitor [7]: 32 µg/mL; MIC of inhibitor used alone without amoxicillin [7]: 128 µg/mL; MIC of ceftazidime plus inhibitor [9]: <0.25 µg/mL; MIC of inhibitor used alone without ceftazidime [9]: 128 µg/mL; MIC of inhibitor used alone without amoxicillin [9]: 64 µg/mL; MIC of ceftazidime plus inhibitor [10]: 128/32; MIC of inhibitor used alone without ceftazidime [10]: 128 µg/mL; MIC of ceftazidime plus inhibitor [8]: 32/8; MIC of inhibitor used alone without ceftazidime [8]: 256 µg/mL; MIC of amoxicillin plus inhibitor [8]: 64 µg/mL; MIC of inhibitor used alone without amoxicillin [8]: 128 µg/mL

Q: For `CC(=O)c1ccc(B(O)O)s1` [5ACTH2B, 5-acetylthiophene-2-boronic acid], which Ki [1, 15] is on record?
A: 1.8 µM

Q: What about the Ki [2] of the same molecule?
A: > 50 µM

Q: Which Ki ([1]; Ki E. coli AmpC) does the source give for `OB(O)c1ccc(Br)cc1` [4BPB, 4-bromophenylboronic acid] here?
A: 2.6 µM

Q: And the Ki [2]?
A: 31.3 µM

Q: For `O=Cc1ccc(B(O)O)cc1` [4FORMB, 4-formylphenylboronate, reference compound], which Ki [1, 15] is on record?
A: 2.8 µM

Q: What about the Ki [2, 12] of the same molecule?
A: 35 µM

Q: `OB(O)c1ccc2c(c1)OCO2` was tested. Which Ki ([1]; Table 5, as described in Example 2, read-out: Ki AmpC) did it give?
A: 53.4 ± 6.1 µM

Q: For `OB(O)[C@@H]1CCOC1` [(R)-3-tetrahydrofuranyl-boronic acid], which Ki ([1]; read-out: Ki for AmpC) is on record?
A: 1.4 ± 0.1 µM

Q: Which Ki [1, 15] does the source give for `O=Cc1ccccc1B(O)O` [2FORMB, 2-formylphenylboronate, reference compound] here?
A: 62 µM

Q: And the Ki [2, 12]?
A: > 100 µM

Q: What does the source list for `C[C@]1(Cn2ccnn2)[C@H](C(=O)O)N2C(=O)C[C@H]2S1(=O)=O` [TAZO, Tazobactam, reference compound]?
A: MIC of amoxicillin plus inhibitor [3]: 16 µg/mL; MIC of inhibitor used alone without amoxicillin [3]: 64 µg/mL; MIC of amoxicillin plus inhibitor [4]: 32 µg/mL; MIC of inhibitor used alone without amoxicillin [4]: 64 µg/mL; MIC of amoxicillin plus inhibitor [5]: 8 µg/mL; MIC of inhibitor used alone without amoxicillin [5]: 32 µg/mL; MIC of amoxicillin plus inhibitor [6]: 4 µg/mL; MIC of inhibitor used alone without amoxicillin [6]: 64 µg/mL; MIC of ceftazidime plus inhibitor [7]: 4/1; MIC of amoxicillin plus inhibitor [7]: 16 µg/mL; MIC of inhibitor used alone without amoxicillin [7]: 64 µg/mL; MIC of ceftazidime plus inhibitor [9]: <0.25 µg/mL; MIC of inhibitor used alone without amoxicillin [9]: 32 µg/mL; MIC of ceftazidime plus inhibitor [10]: 8/2; MIC of ceftazidime plus inhibitor [8]: 32/8; MIC of amoxicillin plus inhibitor [8]: 128 µg/mL; MIC of inhibitor used alone without amoxicillin [8]: 256 µg/mL

Q: Which Ki [1, 11] does the source give for `Cc1ccc(B(O)O)cc1` [4MEPB, 4-methylphenylboronate, reference compound] here?
A: 5.2 µM

Q: And the Ki [2, 12]?
A: > 100 µM

Q: Which Ki [1, 15] does the source give for `OB(O)c1ccc(Cl)s1` [5CLTH2B, 5-chlorothiophene-2-boronic acid] here?
A: 1.4 µM

Q: What about the Ki [2] of the same molecule?
A: 17 µM

Q: And the “MIC of ceftazidime plus inhibitor” value [7]?
A: 4/1

Q: What about the “MIC of inhibitor used alone without ceftazidime” value [7] of the same molecule?
A: 128 µg/mL

Q: And the “MIC of ceftazidime plus inhibitor” value [9]?
A: <0.25 µg/mL

Q: And the “MIC of inhibitor used alone without ceftazidime” value [9]?
A: 128 µg/mL

Q: And the “MIC of ceftazidime plus inhibitor” value [10]?
A: 128/32

Q: What about the “MIC of inhibitor used alone without ceftazidime” value [10] of the same molecule?
A: 128 µg/mL

Q: And the “MIC of ceftazidime plus inhibitor” value [8]?
A: 32/8

Q: And the “MIC of inhibitor used alone without ceftazidime” value [8]?
A: 128 µg/mL

Q: `OB(O)c1ccc2ccccc2c1` [2-naphthylboronic acid] was tested. Which Ki ([1]; Example 1, read-out: Ki for AmpC) did it give?
A: 8.5 ± 1.8 µM
